The source of these data is patent US20050004161A1 (published 2005).

On to `Cn1cc(C(=O)NCc2ccc(Cl)cc2)c(=O)c2cc(COCC[C@@H](O)c3ccccc3)sc21`, for which the melting point was 154.5 to 155.5 °C.

One may read the melting point as the temperature of the solid-liquid transition.
